In the supplement of paper PMC10307832:

Legend:
Experiment in all cases: relative viability (nuclei count vs DMSO), 5 days (fraction); higher = more cells survive
[1] = compound: N#CC1(c2ccc(NC(=O)c3cccnc3NCc3ccncc3)cc2)CCCC1 [Apatinib] + Nc1ncn([C@H]2C[C@H](O)[C@@H](CO)O2)c(=O)n1 [Decitabine] (partner 2 µM)
In short: (§1)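 Lung cancer cell lines were seeded in 1536-well plates and dosed by pin tool the next day, with either a single drug or a fixed anchor-drug dose combined with five library-drug doses (not always all listed) spaced in √10 steps. Five days later, one step fixed the cells and stained their nuclei (final 0.05% Triton X-100, 1% formaldehyde, 1 ug/ml Hoechst), and nuclei were counted on 4× images. Relative viability is the nuclei count in treated wells divided by the count in vehicle wells, and each value is the median of duplicate plates.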

[2] = compound: N#CC1(c2ccc(NC(=O)c3cccnc3NCc3ccncc3)cc2)CCCC1 [Apatinib] + CC(=O)Nc1cccc(-n2c(=O)n(C3CC3)c(=O)c3c(Nc4ccc(I)cc4F)n(C)c(=O)c(C)c32)c1 [Trametinib] (partner 0.02 µM)
In short: as §1

[3] = compound: N#CC1(c2ccc(NC(=O)c3cccnc3NCc3ccncc3)cc2)CCCC1 [Apatinib] + C[C@]1(O)C[C@@H](c2nc(-c3ccc4ccc(-c5ccccc5)nc4c3)c3c(N)nccn32)C1 [Linsitinib] (partner 1 µM)
In short: as §1

[4] = compound: CN(C)C(=N)NC(=N)N [Metformin] + CCNC(=O)c1noc(-c2cc(C(C)C)c(O)cc2O)c1-c1ccc(CN2CCOCC2)cc1 [Luminespib] (partner 0.01 µM)
In short: as §1

Cell Line	relative viability ([1]; first compound 0.08 µM)	relative viability ([1]; first compound 0.253 µM)	relative viability ([1]; first compound 0.8 µM)	relative viability ([1]; first compound 2.53 µM)	relative viability ([1]; first compound 8 µM)	relative viability ([2]; first compound 0.08 µM)	relative viability ([2]; first compound 0.253 µM)	relative viability ([2]; first compound 0.8 µM)	relative viability ([2]; first compound 2.53 µM)	relative viability ([2]; first compound 8 µM)	relative viability ([3]; first compound 0.08 µM)	relative viability ([3]; first compound 0.253 µM)	relative viability ([3]; first compound 0.8 µM)	relative viability ([3]; first compound 2.53 µM)	relative viability ([3]; first compound 8 µM)	relative viability ([4]; first compound 10 µM)	relative viability ([4]; first compound 31.62 µM)	relative viability ([4]; first compound 100 µM)	relative viability ([4]; first compound 316.23 µM)	relative viability ([4]; first compound 1000 µM)
NCI-H647	0.376	0.413	0.478	0.414	0.583	0.547	0.501	0.457	0.439	0.315	1.32	1.18	1.01	1.04	1.02	0.187	0.154	0.278	0.16	0.113
NCI-H661	0.615	0.543	0.542	0.581	0.599	0.606	0.594	0.571	0.532	0.463	0.526	0.578	0.648	0.596	0.52	0.844	0.837	0.876	0.807	0.354
HCC-366	0.395	0.365	0.309	0.353	0.432	0.336	0.393	0.369	0.314	0.273	0.899	0.732	0.571	0.678	0.616	–	–	–	–	–
HOP-62	0.221	0.212	0.2	0.428	0.519	0.411	0.395	0.36	0.422	0.394	1.19	–	0.896	0.821	0.786	0.77	0.878	0.849	0.85	0.796
A549	0.257	0.264	0.247	0.344	0.448	–	–	–	–	–	0.534	0.647	0.686	0.649	0.563	–	–	–	–	–
HCC-827	0.345	0.335	0.363	0.322	0.327	0.525	0.533	0.492	0.519	0.425	0.995	0.937	1.01	0.956	0.737	–	0.843	0.843	0.524	0.736
NCI-H1395	0.747	0.808	0.781	0.744	0.859	1.03	1.05	0.915	0.965	0.965	1.19	1.08	1.16	1.07	0.847	0.706	0.697	0.826	0.834	0.773
SK-MES-1	0.404	0.36	0.488	0.975	0.903	0.585	0.642	0.567	0.64	0.514	1.13	0.975	1.1	1.07	0.942	0.83	0.889	0.95	0.747	0.744
NCI-H2023	0.233	0.261	0.269	0.307	0.472	0.635	0.647	0.492	0.489	0.399	0.816	0.886	0.615	0.683	0.607	0.649	0.725	0.711	0.67	0.676
NCI-H1299	–	–	–	–	–	–	–	–	–	–	0.989	0.984	0.958	0.853	0.77	–	–	–	–	–
LCLC-97TM1	0.268	0.244	0.237	0.185	0.228	0.221	0.221	0.179	0.231	0.182	0.224	0.169	0.173	0.164	0.142	0.75	0.861	0.922	0.7	0.76
NCI-H1993	0.604	0.623	0.519	0.559	0.544	0.436	0.579	0.538	0.493	0.461	0.751	0.648	0.742	0.715	0.775	0.994	1.09	0.713	0.856	0.934
PC-3 [JPC-3]	–	0.869	0.763	0.908	1.04	–	0.786	0.553	0.646	0.654	0.98	0.961	0.885	0.797	0.894	0.686	0.68	0.73	0.663	0.74
NCI-H441	0.229	0.233	0.248	0.285	0.444	0.52	0.46	0.434	0.442	0.503	0.596	0.61	0.628	0.422	0.303	–	0.241	0.336	0.28	0.373
NCI-H322M	0.75	0.709	0.64	0.833	0.783	0.506	0.651	0.494	0.545	0.425	1.13	0.878	0.978	0.974	0.842	0.831	0.884	1.05	0.912	0.826
NCI-H1651	0.609	0.53	0.611	0.593	0.41	0.84	0.874	0.821	0.75	0.684	1.13	1.13	0.895	0.91	0.784	1.19	1.3	1.06	0.828	0.989
EKVX	0.352	0.291	0.339	0.309	0.298	0.419	0.362	0.32	0.392	0.251	1.04	1.09	0.985	0.862	0.795	0.872	0.948	0.809	–	0.836
CAL-12T	–	–	–	–	–	0.385	0.337	0.289	0.313	0.249	0.875	0.879	0.819	0.762	0.654	0.253	0.775	0.447	0.699	0.417

Cell Line	relative viability ([1]; first compound 0.08 µM)	relative viability ([1]; first compound 0.253 µM)	relative viability ([1]; first compound 0.8 µM)	relative viability ([1]; first compound 2.53 µM)	relative viability ([1]; first compound 8 µM)	relative viability ([2]; first compound 0.08 µM)	relative viability ([2]; first compound 0.253 µM)	relative viability ([2]; first compound 0.8 µM)	relative viability ([2]; first compound 2.53 µM)	relative viability ([2]; first compound 8 µM)	relative viability ([3]; first compound 0.08 µM)	relative viability ([3]; first compound 0.253 µM)	relative viability ([3]; first compound 0.8 µM)	relative viability ([3]; first compound 2.53 µM)	relative viability ([3]; first compound 8 µM)	relative viability ([4]; first compound 10 µM)	relative viability ([4]; first compound 31.62 µM)	relative viability ([4]; first compound 100 µM)	relative viability ([4]; first compound 316.23 µM)	relative viability ([4]; first compound 1000 µM)
NCI-H358	0.225	0.219	0.24	0.218	0.316	0.144	0.12	0.179	0.159	0.131	0.868	0.777	0.731	0.627	0.703	0.575	0.677	0.555	0.211	0.364
NCI-H2228	–	–	–	–	–	0.405	0.568	0.646	0.416	0.549	0.708	0.501	0.521	0.629	0.629	0.133	0.185	0.157	0.165	0.209
EBC-1	–	–	–	–	–	–	–	–	–	–	0.935	0.981	0.955	0.685	0.567	–	–	–	–	–
NCI-H1648	0.66	0.502	0.479	0.428	0.508	0.466	0.467	0.39	0.537	0.335	–	–	–	–	–	–	–	–	–	–
NCI-H522	0.685	0.63	0.749	0.606	0.672	0.799	0.77	0.731	0.592	0.68	–	–	–	–	–	1.4	1.27	1.65	1.54	1.33
NCI-H1650	0.495	0.55	0.416	0.64	0.589	0.607	0.659	0.395	0.515	0.482	–	–	–	–	–	0.189	0.212	0.203	0.218	0.218
NCI-H2170	0.476	0.494	0.461	0.518	0.508	0.942	0.881	0.857	0.822	0.737	–	–	–	–	–	0.571	0.677	0.766	0.68	0.632
HCC-78	0.7	0.694	0.692	0.701	0.913	0.717	0.683	0.781	0.651	0.61	0.631	0.395	0.536	0.405	0.401	–	–	–	–	–
Calu-6	–	–	–	–	–	–	–	–	–	–	0.948	1	0.912	0.928	0.85	–	–	–	–	–
SW 900	0.417	0.479	0.447	0.562	0.652	0.757	0.801	0.772	0.623	0.642	–	–	–	–	–	0.152	0.177	0.179	0.192	0.214
NCI-H1703	–	–	–	–	–	–	–	–	–	–	0.458	0.657	0.441	0.0986	0.132	–	–	–	–	–
NCI-H2342	0.704	0.767	0.709	0.799	0.791	0.918	0.777	0.916	0.846	0.834	–	–	–	–	–	0.687	0.706	0.726	0.731	0.71
NCI-H1623	–	–	–	–	–	–	–	–	–	–	–	–	–	–	–	0.475	0.429	0.596	0.487	0.755
ABC-1	–	1.04	1.19	1.21	0.895	–	–	–	–	–	–	0.861	0.869	0.839	0.882	0.481	0.694	0.883	0.306	0.371
NCI-H1563	–	–	–	–	–	–	–	–	–	–	1.28	1.22	1.13	1.12	1.03	0.588	0.629	0.577	0.407	0.584
ChaGo-K-1	0.536	0.56	0.522	0.53	0.43	0.902	0.93	0.862	0.837	0.691	–	–	–	–	–	0.599	0.751	0.67	0.634	0.696
IA-LM	–	–	–	–	–	–	–	–	–	–	0.56	0.383	0.763	0.417	0.341	–	–	–	–	–
